Reference: US20130245081A1, “Compositions and Methods for Treating Amyotrophic Lateral Sclerosis” (priority 2009, published 2013)
Values joined by “and” are separate entries in the source; they are usually repeats but may differ in a detail not shown here. Equal values may be shown once. Marks after values point to notes of the source that are not given here.

Test system: patients with ALS
Assay: Part 2: 4-week single-blind placebo washout period (withdrawal effects)
[1] = 50 mg during Part 1, placebo washout period
[2] = 150 mg during Part 1, placebo washout period
[3] = 300 mg during Part 1, placebo washout period

Question: What does the source list for `CCCN[C@@H]1CCc2nc(N)sc2C1` [dexpramipexole, (6R)-2-amino-4,5,6,7-tetrahydro-6-(propylamino)benzothiazole]?
Answer: Neutrophil Count, Mean (SD) (50 mg during Part 1, Baseline (Part 1: Week 12)): 4.539 (1.3112) ×10^3/μL; Neutrophil Count, Mean (SD) (50 mg during Part 1, Part 2: Week 4 (end of placebo washout)): 4.470 (1.3436) ×10^3/μL; ALS-related TEAE: Disease progression [1]: 1 (5%) N (%); ALS-related TEAE: Dyspnoea [1]: 1 (5%) N (%); ALS-related TEAE: Fall [1]: 2 (9%) N (%); ALS-related TEAE: General Disorders and Administration Site Conditions [1]: 2 (9%) N (%); ALS-related TEAE: Injury, Poisoning and Procedural Complications [1]: 2 (9%) N (%); ALS-related TEAE: Muscle spasms [1]: 1 (5%) N (%); ALS-related TEAE: Muscular weakness [1]: 4 (18%) N (%); ALS-related TEAE: Musculoskeletal and Connective Tissue Disorders [1]: 4 (18%) N (%); ALS-related TEAE: Respiratory, Thoracic and Mediastinal Disorders [1]: 1 (5%) N (%); Neutrophil Count, Mean Δ (SD) from baseline to Week 4 [1]: −0.022 (0.7157) ×10^3/μL; Number of TEAEs [1]: 18; Number of serious TEAEs [1]: 2; Number of severe TEAEs [1]: 2; Number of treatment-related TEAEs [1]: 2; Subjects with a TEAE with action taken of study drug discontinued [1]: 0 N (%); Subjects with ≧1 ALS-related TEAE [1]: 7 (32%) N (%); TEAE: Anxiety [1]: 1 (5%) N (%); TEAE: Back pain [1]: 2 (9%) N (%); TEAE: Constipation [1]: 0 N (%); TEAE: Cough [1]: 0 N (%); TEAE: Diarrhoea [1]: 0 N (%); TEAE: Dyspnoea [1]: 1 (5%) N (%); TEAE: Fall [1]: 2 (9%) N (%); TEAE: Gastrointestinal Disorders [1]: 0 N (%); TEAE: General Disorders and Administration Site Conditions [1]: 2 (9%) N (%); TEAE: Injury, Poisoning and Procedural Complications [1]: 2 (9%) N (%); TEAE: Muscle spasms [1]: 1 (5%) N (%); TEAE: Muscular weakness [1]: 4 (18%) N (%); TEAE: Musculoskeletal and Connective Tissue Disorders [1]: 6 (27%) N (%); TEAE: Nausea [1]: 0 N (%); TEAE: Post lumbar puncture syndrome [1]: 0 N (%); TEAE: Psychiatric Disorders [1]: 1 (5%) N (%); TEAE: Pyrexia [1]: 1 (5%) N (%); TEAE: Respiratory, Thoracic and Mediastinal Disorders [1]: 1 (5%) N (%); mean change from baseline in ALSFRS-R score over 4 weeks [1]: −0.7; mean change from baseline in VC over 4 weeks [1]: −2.9%; serious TEAE: Disease progression [1]: 1 (5%)^a N (%); serious TEAE: Dyspnoea [1]: 1 (5%)^a N (%); serious TEAE: General Disorders and Administration Site Conditions [1]: 1 (5%) N (%); serious TEAE: Renal and Urinary Disorders [1]: 0 N (%); serious TEAE: Respiratory, Thoracic and Mediastinal Disorders [1]: 1 (5%) N (%); serious TEAE: Urethral obstruction [1]: 0 N (%); serious TEAE: Urinary retention [1]: 0 N (%); ≧1 TEAE [1]: 9 (41%) N (%); ≧1 TEAE with an outcome of death [1]: 2 N (%) and 2 (9%) N (%); ≧1 serious TEAE (including death) [1]: 2 (9%) N (%); ≧1 serious treatment-related TEAE [1]: 0 N (%); ≧1 severe TEAE [1]: 2 (9%) N (%); ≧1 treatment-related TEAE [1]: 2 (9%) N (%); Neutrophil Count, Mean (SD) (150 mg during Part 1, Baseline (Part 1: Week 12)): 3.931 (1.4130) ×10^3/μL; Neutrophil Count, Mean (SD) (150 mg during Part 1, Part 2: Week 4 (end of placebo washout)): 4.753 (1.5327) ×10^3/μL; ALS-related TEAE: Disease progression [2]: 0 N (%); ALS-related TEAE: Dyspnoea [2]: 0 N (%); ALS-related TEAE: Fall [2]: 3 (12%) N (%); ALS-related TEAE: General Disorders and Administration Site Conditions [2]: 0 N (%); ALS-related TEAE: Injury, Poisoning and Procedural Complications [2]: 3 (12%) N (%); ALS-related TEAE: Muscle spasms [2]: 1 (4%) N (%); ALS-related TEAE: Muscular weakness [2]: 1 (4%) N (%); ALS-related TEAE: Musculoskeletal and Connective Tissue Disorders [2]: 2 (8%) N (%); ALS-related TEAE: Respiratory, Thoracic and Mediastinal Disorders [2]: 1 (4%) N (%); Neutrophil Count, Mean Δ (SD) from baseline to Week 4 [2]: 0.841 (1.1854) ×10^3/μL; Number of TEAEs [2]: 29; Number of serious TEAEs [2]: 0; Number of severe TEAEs [2]: 0; Number of treatment-related TEAEs [2]: 5; Subjects with a TEAE with action taken of study drug discontinued [2]: 0 N (%); Subjects with ≧1 ALS-related TEAE [2]: 7 (28%) N (%); TEAE: Anxiety [2]: 0 N (%); TEAE: Back pain [2]: 0 N (%); TEAE: Constipation [2]: 1 (4%) N (%); TEAE: Cough [2]: 2 (8%) N (%); TEAE: Diarrhoea [2]: 2 (8%) N (%); TEAE: Dyspnoea [2]: 0 N (%); TEAE: Fall [2]: 3 (12%) N (%); TEAE: Gastrointestinal Disorders [2]: 5 (20%) N (%); TEAE: General Disorders and Administration Site Conditions [2]: 1 (4%) N (%); TEAE: Injury, Poisoning and Procedural Complications [2]: 4 (16%) N (%); TEAE: Muscle spasms [2]: 1 (4%) N (%); TEAE: Muscular weakness [2]: 1 (4%) N (%); TEAE: Musculoskeletal and Connective Tissue Disorders [2]: 3 (12%) N (%); TEAE: Nausea [2]: 1 (4%) N (%); TEAE: Post lumbar puncture syndrome [2]: 1 (4%) N (%); TEAE: Psychiatric Disorders [2]: 2 (8%) N (%); TEAE: Pyrexia [2]: 0 N (%); TEAE: Respiratory, Thoracic and Mediastinal Disorders [2]: 2 (8%) N (%); mean change from baseline in ALSFRS-R score over 4 weeks [2]: −1.0; mean change from baseline in VC over 4 weeks [2]: −1.7%; serious TEAE: Disease progression [2]: 0 N (%); serious TEAE: Dyspnoea [2]: 0 N (%); serious TEAE: General Disorders and Administration Site Conditions [2]: 0 N (%); serious TEAE: Renal and Urinary Disorders [2]: 0 N (%); serious TEAE: Respiratory, Thoracic and Mediastinal Disorders [2]: 0 N (%); serious TEAE: Urethral obstruction [2]: 0 N (%); serious TEAE: Urinary retention [2]: 0 N (%); ≧1 TEAE [2]: 13 (52%) N (%); ≧1 TEAE with an outcome of death [2]: 0 N (%); ≧1 serious TEAE (including death) [2]: 0 N (%); ≧1 serious treatment-related TEAE [2]: 0 N (%); ≧1 severe TEAE [2]: 0 N (%); ≧1 treatment-related TEAE [2]: 2 (8%) N (%); Neutrophil Count, Mean (SD) (300 mg during Part 1, Baseline (Part 1: Week 12)): 3.905 (1.9377) ×10^3/μL; Neutrophil Count, Mean (SD) (300 mg during Part 1, Part 2: Week 4 (end of placebo washout)): 4.112 (1.1979) ×10^3/μL; ALS-related TEAE: Disease progression [3]: 0 N (%); ALS-related TEAE: Dyspnoea [3]: 1 (4%) N (%); ALS-related TEAE: Fall [3]: 2 (8%) N (%); ALS-related TEAE: General Disorders and Administration Site Conditions [3]: 0 N (%); ALS-related TEAE: Injury, Poisoning and Procedural Complications [3]: 2 (8%) N (%); ALS-related TEAE: Muscle spasms [3]: 1 (4%) N (%); ALS-related TEAE: Muscular weakness [3]: 0 N (%); ALS-related TEAE: Musculoskeletal and Connective Tissue Disorders [3]: 1 (4%) N (%); ALS-related TEAE: Respiratory, Thoracic and Mediastinal Disorders [3]: 1 (4%) N (%); Neutrophil Count, Mean Δ (SD) from baseline to Week 4 [3]: 0.130 (1.3502) ×10^3/μL; Number of TEAEs [3]: 46; Number of serious TEAEs [3]: 1; Number of severe TEAEs [3]: 1; Number of treatment-related TEAEs [3]: 3; Subjects with a TEAE with action taken of study drug discontinued [3]: 1 (4%)^b N (%); Subjects with ≧1 ALS-related TEAE [3]: 5 (21%) N (%); TEAE: Anxiety [3]: 0 N (%); TEAE: Back pain [3]: 1 (4%) N (%); TEAE: Constipation [3]: 3 (13%) N (%); TEAE: Cough [3]: 0 N (%); TEAE: Diarrhoea [3]: 1 (4%) N (%); TEAE: Dyspnoea [3]: 1 (4%) N (%); TEAE: Fall [3]: 3 (13%) N (%); TEAE: Gastrointestinal Disorders [3]: 3 (13%) N (%); TEAE: General Disorders and Administration Site Conditions [3]: 3 (13%) N (%); TEAE: Injury, Poisoning and Procedural Complications [3]: 6 (25%) N (%); TEAE: Muscle spasms [3]: 1 (4%) N (%); TEAE: Muscular weakness [3]: 0 N (%); TEAE: Musculoskeletal and Connective Tissue Disorders [3]: 2 (8%) N (%); TEAE: Nausea [3]: 2 (8%) N (%); TEAE: Post lumbar puncture syndrome [3]: 1 (4%) N (%); TEAE: Psychiatric Disorders [3]: 0 N (%); TEAE: Pyrexia [3]: 2 (8%) N (%); TEAE: Respiratory, Thoracic and Mediastinal Disorders [3]: 1 (4%) N (%); mean change from baseline in ALSFRS-R score over 4 weeks [3]: −1.5; mean change from baseline in VC over 4 weeks [3]: −2.7%; serious TEAE: Disease progression [3]: 0 N (%); serious TEAE: Dyspnoea [3]: 1 (4%) N (%); serious TEAE: General Disorders and Administration Site Conditions [3]: 0 N (%); serious TEAE: Renal and Urinary Disorders [3]: 0 N (%); serious TEAE: Respiratory, Thoracic and Mediastinal Disorders [3]: 1 (4%) N (%); serious TEAE: Urethral obstruction [3]: 0 N (%); serious TEAE: Urinary retention [3]: 0 N (%); subjects who required a tracheostomy [3]: 1 subject; ≧1 TEAE [3]: 11 (46%) N (%); ≧1 TEAE with an outcome of death [3]: 0 N (%); ≧1 serious TEAE (including death) [3]: 1 (4%) N (%); ≧1 serious treatment-related TEAE [3]: 0 N (%); ≧1 severe TEAE [3]: 1 (4%) N (%); ≧1 treatment-related TEAE [3]: 2 (8%) N (%)
